# Laboratory results published in publication PMC3916391 (PLoS Pathogens, 2014).
# Like-named read-outs stand apart in the source and are kept apart here.
# Target: T1, pyocin L1 (Pseudomonas aeruginosa, UniProt T2LG16)
# T1 construct: full length, 256 residues, 28413 Da; expressed in E. coli BL21(DE3)pLysS (pETPyoL1); monomer
# T1 sequence (T2LG16 1-256): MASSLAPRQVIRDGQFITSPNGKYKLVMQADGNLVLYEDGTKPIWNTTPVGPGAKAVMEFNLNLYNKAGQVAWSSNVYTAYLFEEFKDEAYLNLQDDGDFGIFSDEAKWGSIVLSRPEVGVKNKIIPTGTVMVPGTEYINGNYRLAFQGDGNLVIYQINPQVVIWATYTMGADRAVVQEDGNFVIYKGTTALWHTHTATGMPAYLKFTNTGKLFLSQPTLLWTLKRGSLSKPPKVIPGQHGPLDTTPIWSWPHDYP
# Type: binding
Compound,Kd (read-out: apparent Kd) [mM],Kd (read-out: Kd) [mM]
C[C@H]1OC(O)[C@@H](O)[C@@H](O)[C@@H]1O (stereo partly drawn) [D-rhamnose],5 to 10,–
OC[C@H]1OC(O)[C@@H](O)[C@@H](O)[C@@H]1O (stereo partly drawn) [D-mannose],–,> 50
